Active and inactive are the calls of the source. No cut-off for these calls is given here.
Legend:
Liposcelis paeta [1] = assay: Insecticidal activity against Liposcelis paeta in compound pre-treated wheat grains assessed as mortality at 1 ppm after 7 days (reference value: 7.8 +/-3.2%); type: functional
[2] = tested on: Liposcelis bostrychophila; assay: Insecticidal activity against Liposcelis bostrychophila (booklice) in compound pre-treated maize grains assessed as mortality at 1 ppm after 14 days (reference value: 13.5 +/-5.3%); type: functional
Liposcelis entomophila [3] = assay: Insecticidal activity against Liposcelis entomophila in compound pre-treated maize grains assessed as mortality at 1 ppm after 14 days (reference value: 14.4 +/-4.1%); type: functional
[4] = tested on: Liposcelis bostrychophila; assay: Insecticidal activity against Liposcelis bostrychophila (booklice) in compound pre-treated maize grains assessed as mortality at 1 ppm after 7 days (reference value: 8.9 +/-2.6%); type: functional
Liposcelis paeta [5] = assay: Insecticidal activity against Liposcelis paeta in compound pre-treated maize grains assessed as effect on progeny production at 1 ppm after 30 days; type: functional, organism-based
Liposcelis entomophila [6] = assay: Insecticidal activity against Liposcelis entomophila in compound pre-treated rice grains assessed as mortality at 1 ppm after 14 days (reference value: 10.0 +/-4.7%); type: functional
[7] = tested on: Liposcelis bostrychophila; assay: Insecticidal activity against Liposcelis bostrychophila (booklice) in compound pre-treated wheat grains assessed as mortality at 1 ppm after 14 days (reference value: 6.8 +/-3.3%); type: functional
Lepinotus reticulatus [8] = assay: Insecticidal activity against Lepinotus reticulatus in compound pre-treated maize grains assessed as mortality at 1 ppm after 7 days (reference value: 34.4 +/-11.4%); type: functional
Liposcelis paeta [9] = assay: Insecticidal activity against Liposcelis paeta in compound pre-treated maize grains assessed as mortality at 1 ppm after 7 days (reference value: 13.3 +/-3.3%); type: functional
Liposcelis entomophila [10] = assay: Insecticidal activity against Liposcelis entomophila in compound pre-treated wheat grains assessed as mortality at 1 ppm after 7 days (reference value: 5.6 +/-2.9%); type: functional
Liposcelis entomophila [11] = assay: Insecticidal activity against Liposcelis entomophila in compound pre-treated maize grains assessed as mortality at 1 ppm after 7 days (reference value: 15.6 +/-6.9%); type: functional
[12] = tested on: Liposcelis bostrychophila; assay: Insecticidal activity against Liposcelis bostrychophila (booklice) in compound pre-treated wheat grains assessed as effect on progeny production at 1 ppm after 30 days; type: functional, organism-based
Liposcelis paeta [13] = assay: Insecticidal activity against Liposcelis paeta in compound pre-treated rice grains assessed as mortality at 1 ppm after 14 days (reference value: 3.4 +/-1.6%); type: functional
Lepinotus reticulatus [14] = assay: Insecticidal activity against Lepinotus reticulatus in compound pre-treated rice grains assessed as mortality at 1 ppm after 14 days (reference value: 15.5 +/-4.1%); type: functional
Lepinotus reticulatus [15] = assay: Insecticidal activity against Lepinotus reticulatus in compound pre-treated wheat grains assessed as mortality at 1 ppm after 7 days (reference value: 10.0 +/-5.3%); type: functional
[16] = tested on: Liposcelis bostrychophila; assay: Insecticidal activity against Liposcelis bostrychophila (booklice) in compound pre-treated rice grains assessed as effect on progeny production at 1 ppm after 30 days; type: functional, organism-based
[17] = tested on: Liposcelis bostrychophila; assay: Insecticidal activity against Liposcelis bostrychophila (booklice) in compound pre-treated rice grains assessed as mortality at 1 ppm after 14 days (reference value: 9.7 +/-2.4%); type: functional
Lepinotus reticulatus [18] = assay: Insecticidal activity against Lepinotus reticulatus in compound pre-treated maize grains assessed as mortality at 1 ppm after 14 days (reference value: 61.1 +/-11.9%); type: functional
Liposcelis entomophila [19] = assay: Insecticidal activity against Liposcelis entomophila in compound pre-treated wheat grains assessed as decrease in progeny production at 1 ppm after 30 days; type: functional, organism-based
Liposcelis paeta [20] = assay: Insecticidal activity against Liposcelis paeta in compound pre-treated maize grains assessed as mortality at 1 ppm after 14 days (reference value: 14.1 +/-4.1%); type: functional
Lepinotus reticulatus [21] = assay: Insecticidal activity against Lepinotus reticulatus in compound pre-treated wheat grains assessed as decrease in progeny production at 1 ppm after 30 days; type: functional, organism-based
[22] = tested on: Liposcelis bostrychophila; assay: Insecticidal activity against Liposcelis bostrychophila (booklice) in compound pre-treated maize grains assessed as decrease in progeny production at 1 ppm after 30 days; type: functional, organism-based
Lepinotus reticulatus [23] = assay: Insecticidal activity against Lepinotus reticulatus in compound pre-treated maize grains assessed as decrease in progeny production at 1 ppm after 30 days; type: functional, organism-based
Liposcelis paeta [24] = assay: Insecticidal activity against Liposcelis paeta in compound pre-treated wheat grains assessed as mortality at 1 ppm after 14 days (reference value: 5.6 +/-1.8%); type: functional
Lepinotus reticulatus [25] = assay: Insecticidal activity against Lepinotus reticulatus in compound pre-treated rice grains assessed as mortality at 1 ppm after 7 days (reference value: 6.8 +/-2.4%); type: functional
Lepinotus reticulatus [26] = assay: Insecticidal activity against Lepinotus reticulatus in compound pre-treated wheat grains assessed as mortality at 1 ppm after 14 days (reference value: 21.1 +/-7.4%); type: functional
Liposcelis entomophila [27] = assay: Insecticidal activity against Liposcelis entomophila in compound pre-treated rice grains assessed as mortality at 1 ppm after 7 days (reference value: 3.3 +/-2.6%); type: functional
Liposcelis entomophila [28] = assay: Insecticidal activity against Liposcelis entomophila in compound pre-treated wheat grains assessed as mortality at 1 ppm after 14 days (reference value: 13.3 +/-4.7%); type: functional
Liposcelis paeta [29] = assay: Insecticidal activity against Liposcelis paeta in compound pre-treated rice grains assessed as mortality at 1 ppm after 7 days (reference value: 3.3 +/-1.7%); type: functional
[30] = tested on: Liposcelis bostrychophila; assay: Insecticidal activity against Liposcelis bostrychophila (booklice) in compound pre-treated rice grains assessed as mortality at 1 ppm after 7 days (reference value: 8.9 +/-4.5%); type: functional
[31] = tested on: Liposcelis bostrychophila; assay: Insecticidal activity against Liposcelis bostrychophila (booklice) in compound pre-treated wheat grains assessed as mortality at 1 ppm after 7 days (reference value: 3.3 +/-1.7%); type: functional
Liposcelis entomophila [32] = assay: Insecticidal activity against Liposcelis entomophila in compound pre-treated maize grains assessed as decrease in progeny production at 1 ppm after 30 days; type: functional, organism-based
Lepinotus reticulatus [33] = assay: Insecticidal activity against Lepinotus reticulatus in compound pre-treated rice grains assessed as decrease in progeny production at 1 ppm after 30 days; type: functional, organism-based

`CC[C@H]1CCC[C@H](O[C@H]2CC[C@H](N(C)C)[C@@H](C)O2)[C@@H](C)C(=O)C2=C[C@@H]3[C@@H](C=C(C)[C@@H]4C[C@@H](O[C@@H]5O[C@@H](C)[C@H](OC)[C@@H](OC)[C@H]5OC)C[C@@H]34)[C@@H]2CC(=O)O1.CC[C@H]1CCC[C@H](O[C@H]2CC[C@H](N(C)C)[C@@H](C)O2)[C@@H](C)C(=O)C2=C[C@@H]3[C@@H](C=C[C@@H]4C[C@@H](O[C@@H]5O[C@@H](C)[C@H](OC)[C@@H](OC)[C@H]5OC)C[C@@H]34)[C@@H]2CC(=O)O1` showed a mortality at 1 ppm (Liposcelis paeta [1]) of 46.7%, a mortality at 1 ppm [2] of 76.4% and a mortality at 1 ppm (Liposcelis entomophila [3]) of 98.9%. The mortality at 1 ppm [4] was 71.1%, the inhibition (Liposcelis paeta [5]) was “inactive” and the mortality at 1 ppm (Liposcelis entomophila [6]) was 52.3%. The mortality at 1 ppm [7] was 75.6%, the mortality at 1 ppm (Lepinotus reticulatus [8]) was 94.5% and the mortality at 1 ppm (Liposcelis paeta [9]) was 16.7%. For the same compound, the mortality at 1 ppm (Liposcelis entomophila [10]) was 61.2%, the mortality at 1 ppm (Liposcelis entomophila [11]) was 90% and the inhibition [12] was “inactive”. For the same compound, the mortality at 1 ppm (Liposcelis paeta [13]) was 18.8%, the mortality at 1 ppm (Lepinotus reticulatus [14]) was 71.1% and the mortality at 1 ppm (Lepinotus reticulatus [15]) was 94.4%. For the same compound, the inhibition [16] was “inactive”, the mortality at 1 ppm [17] was 45.7% and the mortality at 1 ppm (Lepinotus reticulatus [18]) was 100%. For the same compound, the inhibition (Liposcelis entomophila [19]) was “Active”, the mortality at 1 ppm (Liposcelis paeta [20]) was 37.8% and the inhibition (Lepinotus reticulatus [21]) was “Active”. For the same compound, the inhibition [22] was “Active”, the inhibition (Lepinotus reticulatus [23]) was “Active” and the mortality at 1 ppm (Liposcelis paeta [24]) was 55.6%. It also gave a mortality at 1 ppm (Lepinotus reticulatus [25]) of 80%, a mortality at 1 ppm (Lepinotus reticulatus [26]) of 96.7% and a mortality at 1 ppm (Liposcelis entomophila [27]) of 52.2%. The mortality at 1 ppm (Liposcelis entomophila [28]) was 84.4%, the mortality at 1 ppm (Liposcelis paeta [29]) was 10% and the mortality at 1 ppm [30] was 48.9%. For the same compound, the mortality at 1 ppm [31] was 74.5%, the inhibition (Liposcelis entomophila [32]) was “Active” and the inhibition (Lepinotus reticulatus [33]) was “Active”.

Reference: ChEMBL document CHEMBL3044811, “Efficacy of grain protectants against four psocid species on maize, rice and wheat” (2009)
